Consider nine molecules from patent publication US20080275058A1, “N-Substituted-1H-Quinoline-2,4-Diones, Preparation Method Thereof, And Pharmaceutical Composition Containing The Same” (KOREA RESEARCH INSTITUTE OF CHEMICAL TECHNOLOGY, priority 2005, published 2008).

Molecules are shown by their SMILES. Read-outs that look alike come from different tables or passages of the source. Bounds are passed on as bounds.

In experiment [1] the target is T1, 5-HT2a (Homo sapiens, UniProt P28223).
T1 construct: purchased Euroscreen/BioSignal Packard Inc
Briefly: Radioligand binding, 5-HT2a ([3H]Ketanserin). The conditions noted are these: Table 4; [3H]Ketanserin 1 nM; read-out: Binding affinity, IC50 (nM) 5-HT2a.

In experiment [2] the target is T2, 5-HT1a (Homo sapiens, UniProt P08908).
T2 construct: purchased Euroscreen/BioSignal Packard Inc
T2 sequence (P08908 1-422): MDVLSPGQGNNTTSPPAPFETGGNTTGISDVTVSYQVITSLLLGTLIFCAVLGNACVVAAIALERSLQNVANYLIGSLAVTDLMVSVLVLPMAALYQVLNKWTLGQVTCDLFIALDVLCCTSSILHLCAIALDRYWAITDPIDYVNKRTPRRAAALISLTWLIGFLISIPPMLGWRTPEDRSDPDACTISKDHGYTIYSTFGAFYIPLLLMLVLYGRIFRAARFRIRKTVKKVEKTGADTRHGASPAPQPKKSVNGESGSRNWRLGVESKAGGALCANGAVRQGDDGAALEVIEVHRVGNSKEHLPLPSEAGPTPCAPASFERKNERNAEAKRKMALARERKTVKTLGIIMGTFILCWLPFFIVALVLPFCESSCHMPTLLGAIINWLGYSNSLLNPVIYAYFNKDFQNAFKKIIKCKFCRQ
The experiment can be described thus: Radioligand binding, 5-HT1a ([3H]8-OH-DPAT). The following applies: Table 4; [3H]8-OH-DPAT 0.5 nM; read-out: Binding affinity, IC50 (nM) 5-HT1a. On the procedure:
Radioligand bindings were performed according to the test method provided by the supplier of receptor membrane (Euroscreen/BioSignal Packard Inc.). The detailed assay conditions and the results were shown in the following Table 3 and Table 4, respectively.

The target of experiment [3] is T3, hD3 (Homo sapiens, UniProt P35462).
T3 construct: purchased BioSignal Packard Inc., Montreal, Canada
The experiment can be described thus: Radioligand binding, dopamine D3 ([3H]spiperone). The following applies: Table 4; [3H]spiperone 1 nM; read-out: Binding affinity, IC50 (nM) D3. On the procedure: (§1) 2-2: Binding assays of Dopamine Receptor Family
(§2) The radioligands used were [^3H] spiperone (for hD2L and hD3 receptors, 1 nM) and [^3H] YM-09151-2 (for hD4.2 receptor, 0.06 nM). Radioligand bindings were performed by the protocols provided by the supplier of receptor membranes (BioSignal Packard Inc., Montreal, Canada). Briefly, the buffer used in D2 or D3 receptor binding assay was 50 mM Tris-HCl (pH 7.4), 10 mM MgCl2, 1 mM EDTA, or 50 mM Tris-HCl (pH 7.4), 5 mM MgCl2, 5 mM EDTA, 5 mM KCl, 1.5 mM CaCl2, 120 mM NaCl, respectively. In [^3H] YM-09151-2 receptor binding assays, the buffer containing 50 mM Tris-HCl (pH 7.4), 5 mM MgCl2, 5 mM EDTA, 5 mM KCl and 1.5 mM CaCl2 was used. […] Competition binding studies were carried out with 7-8 concentrations of the test compound run in duplicate tubes, and isotherms from three assays were calculated by computerized nonlinear regression analysis (GraphPad Prism Program, San Diego, […]) to yield median inhibitory concentration (IC50) values.

For experiment [4], the target named is D1 (Homo sapiens, UniProt P21728). Briefly: Radioligand binding, dopamine D1. The following applies: Table 4; read-out: Binding affinity, IC50 (nM) D1.
Experiment [5] concerns the target T4, 5-HT2c (Homo sapiens, UniProt P28335).
T4 construct: purchased Euroscreen/BioSignal Packard Inc
T4 sequence (P28335 33-458): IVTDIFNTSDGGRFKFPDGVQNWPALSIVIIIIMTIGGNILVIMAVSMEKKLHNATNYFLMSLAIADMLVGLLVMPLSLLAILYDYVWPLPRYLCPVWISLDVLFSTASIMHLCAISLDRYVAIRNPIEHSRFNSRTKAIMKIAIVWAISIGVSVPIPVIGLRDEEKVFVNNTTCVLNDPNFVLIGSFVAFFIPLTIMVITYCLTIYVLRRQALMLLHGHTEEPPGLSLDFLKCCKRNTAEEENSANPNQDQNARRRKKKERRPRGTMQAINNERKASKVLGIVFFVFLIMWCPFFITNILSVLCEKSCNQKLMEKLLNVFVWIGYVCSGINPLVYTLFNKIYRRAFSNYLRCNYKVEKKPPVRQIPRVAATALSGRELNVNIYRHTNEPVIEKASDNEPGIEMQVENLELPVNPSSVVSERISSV
Briefly: Radioligand binding, 5-HT2c ([3H]Mesulergine). The conditions noted are these: Table 4; [3H]Mesulergine 1 nM; read-out: Binding affinity, IC50 (nM) 5-HT2c.

Experiment [6] deals with T5, hD2L (Homo sapiens, UniProt P14416).
T5 construct: purchased BioSignal Packard Inc., Montreal, Canada
The experiment can be described thus: Radioligand binding, dopamine D2 ([3H]spiperone). The following applies: Table 4; [3H]spiperone 1 nM; read-out: Binding affinity, IC50 (nM) D2. On the procedure:
as §1, §2

Experiment [7] addresses T6, Human serotonin 5-HT6 receptor (Homo sapiens, UniProt P50406).
T6 construct: made in house; host or cells: insect Sf21 cells (baculovirus vector BacPAK8)
The experiment can be described thus: [3H]LSD binding assay on cloned 5-HT6 receptor membranes.

For experiment [8], the target named is T7, 5-HT7 (Homo sapiens, UniProt P34969).
T7 construct: purchased Euroscreen/BioSignal Packard Inc
The experiment can be described thus: Radioligand binding, 5-HT7 ([3H]LSD). The conditions noted are these: Table 4; [3H]LSD 3 nM; read-out: Binding affinity, IC50 (nM) 5-HT7.

The target of experiment [9] is T8, hD4.2 receptor (Homo sapiens, UniProt P21917, DEL265-296).
T8 construct: purchased BioSignal Packard Inc., Montreal, Canada
T8 sequence (P21917 with tags, fused parts or gaps DEL265-296): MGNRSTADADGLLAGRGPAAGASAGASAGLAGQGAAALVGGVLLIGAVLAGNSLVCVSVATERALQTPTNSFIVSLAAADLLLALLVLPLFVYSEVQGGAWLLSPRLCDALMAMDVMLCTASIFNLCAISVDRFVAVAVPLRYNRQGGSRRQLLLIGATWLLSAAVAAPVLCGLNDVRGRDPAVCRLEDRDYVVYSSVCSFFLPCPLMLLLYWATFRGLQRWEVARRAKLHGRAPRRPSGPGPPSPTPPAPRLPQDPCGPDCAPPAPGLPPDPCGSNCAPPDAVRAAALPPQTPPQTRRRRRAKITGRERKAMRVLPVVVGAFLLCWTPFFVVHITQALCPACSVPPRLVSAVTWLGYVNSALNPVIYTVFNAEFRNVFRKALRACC
Briefly: Radioligand binding, dopamine D4 ([3H]YM-09151-2). The conditions noted are these: Table 4; [3H]YM-09151-2 0.06 nM; read-out: Binding affinity, IC50 (nM) D4. On the procedure: as §1, §2

Where [10] appears, read: Table 2, 1.87 nM [3H]LSD, 37 C, 60 min, read-out: IC50 (nM), binding affinity to the 5-HT6 receptor.
The mark [11] stands for this setting: Table 4, read-out: Binding affinity, IC50 (nM) 5-HT6.

Chain of D1 (P21728 whole entry): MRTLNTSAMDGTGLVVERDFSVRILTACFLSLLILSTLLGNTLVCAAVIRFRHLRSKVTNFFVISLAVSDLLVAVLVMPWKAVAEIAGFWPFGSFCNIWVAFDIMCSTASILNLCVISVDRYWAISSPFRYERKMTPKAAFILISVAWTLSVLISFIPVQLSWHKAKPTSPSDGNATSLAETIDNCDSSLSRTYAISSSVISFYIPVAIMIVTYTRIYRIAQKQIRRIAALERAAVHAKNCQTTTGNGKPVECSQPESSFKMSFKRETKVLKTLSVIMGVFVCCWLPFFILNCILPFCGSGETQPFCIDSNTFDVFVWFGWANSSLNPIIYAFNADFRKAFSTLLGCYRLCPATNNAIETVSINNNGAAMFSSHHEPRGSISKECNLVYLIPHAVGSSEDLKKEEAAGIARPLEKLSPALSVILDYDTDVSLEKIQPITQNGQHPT
T3 sequence (P35462 whole entry): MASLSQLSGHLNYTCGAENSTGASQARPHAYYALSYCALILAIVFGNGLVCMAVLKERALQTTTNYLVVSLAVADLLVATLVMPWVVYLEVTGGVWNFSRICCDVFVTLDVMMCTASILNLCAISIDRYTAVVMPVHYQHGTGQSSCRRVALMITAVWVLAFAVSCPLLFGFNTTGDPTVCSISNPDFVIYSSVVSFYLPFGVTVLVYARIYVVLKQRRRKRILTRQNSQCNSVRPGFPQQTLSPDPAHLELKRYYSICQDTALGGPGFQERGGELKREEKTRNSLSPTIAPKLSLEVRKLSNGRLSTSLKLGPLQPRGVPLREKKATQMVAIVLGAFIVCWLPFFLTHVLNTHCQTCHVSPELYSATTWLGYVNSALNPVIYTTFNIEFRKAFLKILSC
T6 sequence (P50406 whole entry): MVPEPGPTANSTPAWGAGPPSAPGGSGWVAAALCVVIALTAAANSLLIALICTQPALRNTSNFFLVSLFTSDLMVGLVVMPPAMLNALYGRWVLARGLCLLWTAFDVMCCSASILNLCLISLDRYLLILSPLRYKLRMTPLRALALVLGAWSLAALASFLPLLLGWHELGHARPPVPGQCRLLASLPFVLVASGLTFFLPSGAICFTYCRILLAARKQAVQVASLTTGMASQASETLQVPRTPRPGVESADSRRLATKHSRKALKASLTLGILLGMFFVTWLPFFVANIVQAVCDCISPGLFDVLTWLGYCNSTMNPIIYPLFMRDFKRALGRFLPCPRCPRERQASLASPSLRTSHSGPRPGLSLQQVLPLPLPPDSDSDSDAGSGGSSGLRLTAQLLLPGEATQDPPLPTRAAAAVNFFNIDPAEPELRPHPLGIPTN
T1 sequence (P28223 whole entry): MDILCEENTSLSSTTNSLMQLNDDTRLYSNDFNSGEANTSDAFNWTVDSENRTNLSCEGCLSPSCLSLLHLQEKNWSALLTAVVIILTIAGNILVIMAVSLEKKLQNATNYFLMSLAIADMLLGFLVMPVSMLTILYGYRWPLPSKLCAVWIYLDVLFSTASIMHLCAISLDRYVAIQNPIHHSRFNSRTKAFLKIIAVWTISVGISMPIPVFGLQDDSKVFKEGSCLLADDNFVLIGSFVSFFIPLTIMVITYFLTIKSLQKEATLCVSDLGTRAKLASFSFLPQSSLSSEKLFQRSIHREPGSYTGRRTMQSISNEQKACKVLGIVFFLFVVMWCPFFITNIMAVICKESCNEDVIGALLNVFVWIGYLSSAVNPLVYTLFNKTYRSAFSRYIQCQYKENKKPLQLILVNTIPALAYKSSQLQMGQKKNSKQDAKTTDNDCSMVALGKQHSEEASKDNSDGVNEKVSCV
T7 sequence (P34969 whole entry): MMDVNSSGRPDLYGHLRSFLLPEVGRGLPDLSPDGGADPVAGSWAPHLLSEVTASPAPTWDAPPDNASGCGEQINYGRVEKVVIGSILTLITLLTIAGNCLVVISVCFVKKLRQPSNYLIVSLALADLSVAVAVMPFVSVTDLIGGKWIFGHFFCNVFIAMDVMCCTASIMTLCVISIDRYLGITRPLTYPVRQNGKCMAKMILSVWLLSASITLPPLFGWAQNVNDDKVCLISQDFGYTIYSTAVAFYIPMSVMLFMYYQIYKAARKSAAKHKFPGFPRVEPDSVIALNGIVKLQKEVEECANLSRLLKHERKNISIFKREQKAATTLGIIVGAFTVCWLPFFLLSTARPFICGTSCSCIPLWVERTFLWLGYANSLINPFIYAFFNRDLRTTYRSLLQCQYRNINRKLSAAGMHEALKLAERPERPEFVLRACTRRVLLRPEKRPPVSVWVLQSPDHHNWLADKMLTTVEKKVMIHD
T5 sequence (P14416 whole entry): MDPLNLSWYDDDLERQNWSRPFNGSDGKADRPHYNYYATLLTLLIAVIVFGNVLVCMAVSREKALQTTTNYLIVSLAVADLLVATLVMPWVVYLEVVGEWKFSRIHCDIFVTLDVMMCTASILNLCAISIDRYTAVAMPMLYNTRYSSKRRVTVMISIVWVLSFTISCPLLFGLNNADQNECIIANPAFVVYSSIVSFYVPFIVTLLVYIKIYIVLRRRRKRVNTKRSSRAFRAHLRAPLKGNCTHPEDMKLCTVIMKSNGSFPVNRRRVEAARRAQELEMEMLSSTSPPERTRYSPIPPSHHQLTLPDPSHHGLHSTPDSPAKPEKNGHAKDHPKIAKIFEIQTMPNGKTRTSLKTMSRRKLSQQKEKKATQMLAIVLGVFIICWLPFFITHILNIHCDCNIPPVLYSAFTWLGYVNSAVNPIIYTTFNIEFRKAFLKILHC

For the molecule `CN1CCN(c2cc(Cl)cc3c2C(=O)[C@@](C)(c2ccc(N)cc2)C(=O)N3Cc2ccccc2)CC1` (stereo in doubt) [Example 4, 3-(4-Amino-phenyl)-1-benzyl-7-chloro-3-methyl-5-(4-methyl-piperazin-1-yl)-1H-quinoline-2,4-dione], the IC50 (commonly the concentration at which inhibition is half-maximal) turned out to be 7010 nM in [1]; 5800 nM in experiment [2]; 8110 nM in experiment [3]; 7090 nM in experiment [4]; 5780 nM in [5]; 6550 nM in experiment [6]. In addition, the 50% inhibitory concentration (IC50) in experiment [7] (setting [10]) came out at 7.4 nM; in experiment [7] (setting [11]) it was 15 nM; in experiment [8] it was 5050 nM; in experiment [9] it was 8190 nM.

Turning to `CC1(c2ccc(N)cc2)C(=O)c2c(N3CCNCC3)cc(Cl)cc2N(Cc2ccccc2)C1=O` (stereo not drawn) [Example 16, 3-(4-Amino-phenyl)-1-benzyl-7-chloro-3-methyl-5-piperazin-1-yl-1H-quinolin-2,4-dione], the 50% inhibitory concentration (IC50) in [1] worked out at 8080 nM; in experiment [2], 6020 nM; in experiment [3] it was 9070 nM; in experiment [4], 9010 nM; in experiment [5], 9880 nM; in [6], 6740 nM. Further, the IC50 stood at 3.2 nM in experiment [7] (setting [10]), 17.6 nM in experiment [7] (setting [11]), 9350 nM in experiment [8] and 8910 nM in experiment [9].

As for `CCN(CC)c1ccc(C2(C)C(=O)c3c(N4CCNCC4)cc(Cl)cc3N(Cc3ccccc3)C2=O)cc1` (stereo not drawn) [Example 17, 1-Benzyl-7-chloro-3-(4-diethylamino-phenyl)-3-methyl-5-piperazin-1-yl-1H-quinoline-2,4-dione], the 50% inhibitory concentration (IC50) stood at 7550 nM in [1]; 8550 nM in experiment [2]; 8200 nM in experiment [3]; 8410 nM in experiment [4]; 9810 nM in [5]; 9050 nM in experiment [6]. In addition, the half-maximal inhibitory concentration (IC50) in [7] (setting [10]) was 41.5 nM; in experiment [7] (setting [11]), 21.5 nM; in experiment [8] it was over 10000 nM; in experiment [9] it was 9110 nM.

On to `CCNc1ccc(C2(C)C(=O)c3c(N4CCNCC4)cc(Cl)cc3N(Cc3ccccc3)C2=O)cc1` (stereo not drawn) [Example 18, 1-Benzyl-7-chloro-3-(4-ethylamino-phenyl)-3-methyl-5-piperazin-1-yl-1H-quinoline-2,4-dione], for which the IC50 in experiment [1] is 7010 nM; in [2], 8050 nM; in [3] it was 8900 nM; in experiment [4], over 10000 nM; in [5] it was 8450 nM; in experiment [6] it was over 1000 nM. For the same molecule, the IC50 in [7] (setting [10]) turned out to be 14.6 nM; in experiment [7] (setting [11]), 15.5 nM; in experiment [8], 6010 nM; in [9], 8990 nM.

Turning to `CC1(c2ccc(O)cc2)C(=O)c2c(N3CCNCC3)cc(Cl)cc2N(Cc2cccc(N)c2)C1=O` (stereo not drawn) [Example 26, 1-(3-Amino-benzyl)-7-chloro-3-(4-hydroxy-phenyl)-3-methyl-5-piperazin-1yl-1H-quinoline-2,4-dione], the 50% inhibitory concentration (IC50) was 5750 nM in [1]; 5900 nM in experiment [2]; 9120 nM in [3]; 6950 nM in experiment [4]; 7330 nM in experiment [5]; 8410 nM in experiment [6]. Further, the IC50 in experiment [7] (setting [10]) was 8.7 nM; in experiment [7] (setting [11]), 19 nM; in experiment [8], 5630 nM; in experiment [9], 9410 nM.

Turning to `CC1(c2ccc(O)cc2)C(=O)c2c(N3CCNCC3)cc(Cl)cc2N(Cc2ccccc2O)C1=O` (stereo not drawn) [Example 30, 7-Chloro-1-(2-hydroxy-benzyl)-3-(4-hydroxy-phenyl)-3-methyl-5-piperazin-1-yl-1H-quinoline-2,4-dione], the 50% inhibitory concentration (IC50) in experiment [1] was 8400 nM; in [2], 7240 nM; in [3] it was 9780 nM; in experiment [4], 8000 nM; in experiment [5], 9450 nM; in experiment [6], 7650 nM. The IC50 in [7] (setting [10]) is 15.9 nM; in experiment [7] (setting [11]) it was 18.1 nM; in experiment [8], 7340 nM; in [9], 8760 nM.

For `CC1(c2ccc(O)cc2)C(=O)c2c(N3CCNCC3)cc(Cl)cc2N(Cc2cccc(Br)c2)C1=O` (stereo not drawn) [Example 34, 1-(3-Bromo-benzyl)-7-chloro-3-(4-hydroxy-phenyl)-3-methyl-5-piperazin-1-yl-1H-quinoline-2,4-dione], the concentration for half-maximal inhibition (IC50) in experiment [1] amounted to 6960 nM; in experiment [2], 7550 nM; in experiment [3], 9000 nM; in experiment [4], 9160 nM; in [5], 7030 nM; in experiment [6], 8050 nM. Also, the IC50 in experiment [7] (setting [10]) was determined as 3.6 nM; in experiment [7] (setting [11]), 16.8 nM; in experiment [8] it was 9070 nM; in experiment [9] it was 9350 nM.

`CC1(c2ccc(O)cc2)C(=O)c2c(N3CCNCC3)cc(Cl)cc2N(Cc2cccnc2)C1=O` (stereo not drawn) [Example 38, 7-Chloro-3-(4-hydroxy-phenyl)-3-methyl-5-piperazin-1-yl-1-pyridin-3-ylmethyl-1H-quinoline-2,4-dione]: the IC50 in experiment [1] was 8400 nM; in experiment [2], 8450 nM; in experiment [3], 9310 nM; in experiment [4], 9410 nM; in experiment [5] it was 9140 nM; in experiment [6], 7690 nM. The concentration for half-maximal inhibition (IC50) worked out at 30.6 nM in [7] (setting [10]), 20.4 nM in [7] (setting [11]), 6410 nM in experiment [8] and 9240 nM in experiment [9].

Regarding `CC1(c2ccc(O)cc2)C(=O)c2c(N3CCNCC3)cc(Cl)cc2N(Cc2ccc3ccccc3c2)C1=O` (stereo not drawn) [Example 40, 7-Chloro-3-(4-hydroxy-phenyl)-3-methyl-1-naphthalen-2-ylmethyl-5-piperazin-1-yl-1H-quinoline-2,4-dione], the 50% inhibitory concentration (IC50) in experiment [1] was found to be 9480 nM; in experiment [2] it was 7510 nM; in [3], 9310 nM; in experiment [4], 7510 nM; in [5] it was 8510 nM; in experiment [6], 8540 nM. Besides, the concentration for half-maximal inhibition (IC50) in experiment [7] (setting [10]) turned out to be 55.7 nM; in experiment [7] (setting [11]), 18.2 nM; in experiment [8], 7810 nM; in experiment [9], 8980 nM.
